Where two headings read alike, the source gives them in different places.
Key:
[1] = T1 relaxivity of Gd-chelated polymeric contrast agent at 1.5 T; format: physicochemical
Source text: A Gd-chelated polymeric MRI contrast agent 20 (Gd Hydrogel) based on a biodegradable, biocompatible poly(L-glutamic acid) (L-PG) backbone was also synthesized and characterized. […] “Blooming” occurs with MR imaging when the contrast agent 20 is encapsulated by titanium and cannot be visualized due to the susceptibility artifacts
To characterize the contrast agents 20, they were filtrated and injected into the glass capillary tube with 4 mm in length and OD=0.8 mm, ID=0.5 mm with volume of 0.5-1 μL. Water-proton relaxivities were measured at variable temperature (278-335 K), and as a function of magnetic field (1.5 T, 3 T, 4.7 T, and 7 T). Slight differences between the relaxivities of these agents at different field strengths will require slightly different concentrations for optimal visibility at these field strengths. By pH dependency of the proton relaxivities we will evaluate the synthesized CAM for pH-responsive MRI contrast agent 20 applications. Although 4.7 T is not a field strength commonly associated with clinical MRI, it complements the data collected at more clinically relevant field strengths and helps to identify trends in agent relaxivity.

[2] = Octanol-water partition coefficient; format: physicochemical
Experimental: […] The resulting biphasic solution was shaken vigorously for two hours at which point 400 μL of the octanol layer and 400 μL of the water layer were removed. The solvent from each sample was removed under reduced pressure and the mass of the compound in the octanol sample was divided by the mass of the compound in the water sample. This experiment was repeated in triplicate, and the results were averaged to give the Log (Poct/wat) values. All complexes were completely soluble in the mixture of octanol and water.

[3] = pH of aqua solution of contrast agent; format: physicochemical
Experimental: For preparation of aqua solution of contrast agent, the as-synthesized cobalt/glycine crystallites were dissolved in distillated water (0.3-10 wt %) and stirred at the room temperature with a magnetic stir bar for 1 h and then sonicated for 30 min.
The value of pH varied from 2.6 to 6.5.

[4] = Viscosity of contrast agent solution (Brookfield viscometer); format: physicochemical; conditions: room temperature
Experimental: Viscosity of contrast agent solution was measured at room temperature by using Brookfield digital viscometer DV-II.

[5] = Surface tension of contrast agents (Fisher 21 tensiometer); format: physicochemical
Source text: The Fisher 21 tensiometer was used to measure surface tension of contrast agents with accuracy t within +/−0.25%.

[6] = Magnetic properties of contrast agent solutions by VSM; format: physicochemical
Experimental: The magnetic properties of contrast agent solutions were determined by VSM (Vibrating Sample Magnetometer) at room temperature and magnetic field up to 1.5 T.
FIG. 20a-20d show the magnetic properties of various aqua solutions of Co/glycine with concentration 1, 3, 5, 8 and 10%.

[7] = MR relaxation measurements of C4 complex at 1.5 T; format: physicochemical; conditions: for T1 (ms) μ / T2 (ms) μ: 1.5T, 23° C.
Experimental: (§1) MR imaging measurements were performed on a 1.5 T clinical scanner (Excite HD, GEHT, Waukesha, Wis.) to characterize the relaxation properties of the new cobalt complex after each new modification of the C4 chemistry was made. Several iterations were performed before obtaining a stable sample. Additional measurements at 3.0 T (Excite HD, GEHT, Waukesha, Wis.) were made once the design of the C4 complex was stable. Each session or iteration (n=5) took approximately 2 hours to collect all the relaxation data.
[…] Theses solutions were placed in a water bath and imaged at room temperature (23° C.). Experiments were performed to ascertain the spin-lattice relaxivity (R1), spin-spin relaxivity (R2) and true spin-spin relaxivity (R2*) at 1.5 T and 3 T using a volume knee coil to excite and receive the MR signal.
(§2) R1 measurements were performed using a spin-echo inversion recovery (SE-IR) sequence with parameters: Inversion Time (TI)={0.05, 0.1, 0.2, 0.3, 0.4, 0.5, 0.6, 0.7, 0.8, 0.9, 1.0, 1.2, 1.4, 1.6, 1.8, 2.0} sec, Pulse Repetition Time (TR)=5000, Time to Echo (TE)=10 ms, slice thickness=3 mm, acquisition matrix=256 (frequency)×128 (phase), receiver bandwidth (rBW)=±15 kHz and the number of excitations (NEX)=1.
(§3) R2 measurements were carried out using an SE sequence with parameters: TE={15, 20, 40, 60, 100, 150, 200, 250, 300 and 500 ms}, TR=5000 ms, slice thickness=3 mm, matrix size=256×128, rBW=±15 kHz and NEX=1.
(§4) The slopes of R1 and R2 curve versus concentration were used to determine the relaxivity (r1 and r2) in mM^−1 s^−1 as shown in the following tables. A weighted least-linear squares fitting routine was written in MATLAB to calculate the fit parameters accounting for the uncertainty as well as calculating the net uncertainty in the derived measurement. Note that in the final quantitative analysis, R2* measurements are excluded since the samples seemed to have interfering magnetic effects that could alter results.

[8] = MR relaxation measurements of C4 complex at 3.0 T; format: physicochemical; conditions: 3.0T; for T1 (ms) μ / T2 (ms) μ: 23° C.
Experimental: as §1
Concentrations of the complex were prepared in 0.1%, 0.3%, 0.5%, 0.75% and 1.0% solutions provided by the UH group. Theses solutions were placed in a water bath and imaged at room temperature (23° C.). Experiments were performed to ascertain the spin-lattice relaxivity (R1), spin-spin relaxivity (R2) and true spin-spin relaxivity (R2*) at 1.5 T and 3 T using a volume knee coil to excite and receive the MR signal.
as §2, §3, §4

[9] = Characterization of the C4 complex at 7 T; format: physicochemical; parameters: T2 / T1 / T2* / T2*-2: unit not given here; conditions: for T2*-2: second T2* measurement
Experimental: […] Characteristic T1, T2, and T2* relaxation times of the preparations were measured at each concentration. T1 measurements were made using a fast spin-echo saturation-recovery sequence (TE=63 ms; TR=400 ms, 500 ms, 1000 ms, 1500 ms, 2500 ms, 500 ms; FOV=3.2 cm×3.2 cm; matrix=64×64; echo train length=12; slice thickness=1 mm). T2 measurements were made using a CPMG multi-spin-echo sequence (TE=n×15 ms, 1≦n≦24; TR=1100 ms). T2* measurements were made using a multi-gradient echo sequence (TE=1.5 ms+n×[…], 0≦n≦15; TR=500 ms, 4000 ms). The image matrix and slice prescription for all measurements were kept constant. The characteristic T1, T2, and T2* relaxation time constants of each compartment were measured using Paravision 4.0, and the relaxivities of the contrast agent were estimated by fitting measured data to the Solomon-Bloembergen-Morgan model using Matlab.

[10] = Temporal stability of R1 of the cobalt complex; format: physicochemical; conditions: taken 54 days apart
[11] = cited from earlier work
[12] = 1.5 T (23° C.), De Bazelaire 2004

Molecule: L-PG-Bz-DTPA-Gd
- T1 relaxivity [1]: 25 mM⁻¹ s⁻¹
- T1 relaxivity, times greater than that of Gd-DTPA [1]: more than 6 times

Molecule: (CoCl2)n(C2H5NO2)1-n [Example C4]
- Partition Coefficient, Log P ([2]; contrast agent solution 0.5 %): (−0.15) −
- Partition Coefficient, Log P ([2]; contrast agent solution 5 %): (−0.09)
- pH ([3]; contrast agent solution 0.5 %): 6.1
- pH ([3]; contrast agent solution 5 %): 3.2
- Viscosity ([4]; contrast agent solution 0.5 %): 1.0 cP
- Viscosity ([4]; contrast agent solution 5 %): 1.1 cP
- Surface tension ([5]; contrast agent solution 0.5 %): 72.8 dynes/cm
- Surface tension ([5]; contrast agent solution 5 %): 73.6 dynes/cm
- Magnetic properties ([6]; contrast agent solution 0.5 %): paramagnetic
- Magnetic properties ([6]; contrast agent solution 5 %): paramagnetic
- T1 relaxation time ([7]; 0.1%-8.25 mM): 782 ms
- relaxivity r1 ([7]; 1.5 T): 0.086 ± 0.006 mM/s
- relaxivity r1, Slope μ ([7]; 1.5 T): 0.086 mM⁻¹ s⁻¹
- relaxivity r2 ([7]; 1.5 T): 0.097 ± 0.010 mM/s
- T1 (ms) μ ([7]; 0.10 % Wt, 8.25 mM): 782.0 ms
- T2 (ms) μ ([7]; 0.10 % Wt, 8.25 mM): 836.0 ms
- T1 (ms) μ ([7]; 0.30 % Wt, 24.76 mM): 379.0 ms
- T2 (ms) μ ([7]; 0.30 % Wt, 24.76 mM): 354.0 ms
- T1 (ms) μ ([7]; 0.50 % Wt, 41.27 mM): 235.0 ms
- T2 (ms) μ ([7]; 0.50 % Wt, 41.27 mM): 215.0 ms
- T1 (ms) μ ([7]; 0.75 % Wt, 61.90 mM): 172.0 ms
- T2 (ms) μ ([7]; 0.75 % Wt, 61.90 mM): 153.0 ms
- T1 (ms) μ ([7]; 1.00 % Wt, 82.53 mM): 130.0 ms
- T2 (ms) μ ([7]; 1.00 % Wt, 82.53 mM): 120.0 ms
- T1 relaxation time ([7]; 10%-825 mM): 61 ms
- relaxivity r1, Slope μ [8]: 0.070 mM⁻¹ s⁻¹
- T1 (ms) μ ([8]; 0.10 % Wt, 8.25 mM): 866.0 ms
- T2 (ms) μ ([8]; 0.10 % Wt, 8.25 mM): 530.0 ms
- T1 (ms) μ ([8]; 0.30 % Wt, 24.76 mM): 432.0 ms
- T2 (ms) μ ([8]; 0.30 % Wt, 24.76 mM): 215.0 ms
- T1 (ms) μ ([8]; 0.50 % Wt, 41.27 mM): 288.0 ms
- T2 (ms) μ ([8]; 0.50 % Wt, 41.27 mM): 124.0 ms
- T1 (ms) μ ([8]; 0.75 % Wt, 61.90 mM): 202.0 ms
- T2 (ms) μ ([8]; 0.75 % Wt, 61.90 mM): 104.0 ms
- T1 (ms) μ ([8]; 1.00 % Wt, 82.53 mM): 164.0 ms
- T2 (ms) μ ([8]; 1.00 % Wt, 82.53 mM): 105.0 ms
- R1 (T1 relaxivity estimate) [9]: R1 = 0.0979
- T1 relaxivity [9]: 0.0979 mM/s
- T2* relaxivity [9]: ~0.618 mM/s
- T2 relaxivity [9]: 0.502 mM/s
- T1 ([9]; 8.25 mM): 980.805
- T2 ([9]; 8.25 mM): 74.85
- T2* ([9]; 8.25 mM): 141.415
- T2*-2 ([9]; 8.25 mM): 146.68
- T1 ([9]; 24.76 mM): 524.66
- T2 ([9]; 24.76 mM): 45.175
- T2* ([9]; 24.76 mM): 50.42
- T2*-2 ([9]; 24.76 mM): 52.755
- T1 ([9]; 41.27 mM): 533.955
- T2 ([9]; 41.27 mM): 31.14
- T2* ([9]; 41.27 mM): 32.37
- T2*-2 ([9]; 41.27 mM): 34.135
- T1 ([9]; 61.9 mM): 160.45
- T2 ([9]; 61.9 mM): 22.96
- T2* ([9]; 61.9 mM): 24.85
- T2*-2 ([9]; 61.9 mM): 25.55
- T1 ([9]; 82.53 mM): 116.5
- T2 ([9]; 82.53 mM): 20.84
- T2* ([9]; 82.53 mM): 17.99
- T2*-2 ([9]; 82.53 mM): 17.64
- degradation or breakdown over time: difference between two R1 measurements [10]: no statistically significant difference was observed

Molecule: CNC[C@H](O)[C@@H](O)[C@H](O)[C@H](O)CO.CNC[C@H](O)[C@@H](O)[C@H](O)[C@H](O)CO.O=C([O-])CN(CCN(CC(=O)[O-])CC(=O)O)CCN(CC(=O)[O-])CC(=O)O.[Gd+3] [Magnevist]
- r2/r1 [11, 12]: 1.12±0.01
- relaxivity r1 [11, 12]: 4.68 ± 0.06 mM/s
- relaxivity r2 [11, 12]: 5.57 ± 0.07 mM/s
- relaxivity ([11]; 1.5 T in phosphate-buffered saline, Unger 1999): 4.1 mM⁻¹ s⁻¹
- T1 relaxivity ([11]; 7 T, for reference): approximately 5.3 (mM·s)^−1
